Data taken from US9834558B2, “Substituted bridged urea analogs as sirtuin modulators” (GLAXOSMITHKLINE LLC, priority 2013, dated 2017).
Where a name gives a salt, the structure may show the parent alone.

Biological target: T1, SIRT1 (Homo sapiens, UniProt Q96EB6)
T1 sequence (Q96EB6 1-747): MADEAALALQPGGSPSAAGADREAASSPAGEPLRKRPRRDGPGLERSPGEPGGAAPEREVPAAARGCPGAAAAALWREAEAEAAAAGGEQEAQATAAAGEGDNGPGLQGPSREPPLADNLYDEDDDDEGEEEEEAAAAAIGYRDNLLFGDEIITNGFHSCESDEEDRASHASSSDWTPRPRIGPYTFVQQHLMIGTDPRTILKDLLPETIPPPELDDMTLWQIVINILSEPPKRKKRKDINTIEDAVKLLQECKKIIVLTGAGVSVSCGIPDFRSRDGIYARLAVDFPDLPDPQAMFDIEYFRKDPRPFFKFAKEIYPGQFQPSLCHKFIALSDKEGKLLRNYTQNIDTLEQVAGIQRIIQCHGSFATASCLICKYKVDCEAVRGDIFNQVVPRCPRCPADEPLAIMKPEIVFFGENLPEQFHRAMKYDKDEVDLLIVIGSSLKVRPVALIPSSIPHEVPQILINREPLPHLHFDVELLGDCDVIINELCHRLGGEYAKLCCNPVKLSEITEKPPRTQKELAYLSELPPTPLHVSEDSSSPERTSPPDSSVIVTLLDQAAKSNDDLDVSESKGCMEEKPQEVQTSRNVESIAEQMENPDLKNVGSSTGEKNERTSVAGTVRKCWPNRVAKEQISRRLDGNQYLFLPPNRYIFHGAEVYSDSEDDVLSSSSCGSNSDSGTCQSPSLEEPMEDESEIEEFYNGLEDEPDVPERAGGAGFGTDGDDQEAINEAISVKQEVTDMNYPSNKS
Assay: Trp mass spectrometry assay of SIRT1 activation
Format: biochemical
Conditions: for TRP Activity (EC1.5) / Emax: Trp peptide assay; for TRP Activity (EC1.5): EC1.5 = concentration that results in 150% activation of SIRT1; for Emax: maximum activity relative to control (100%), read-out: TRP MAX RESP (percent maximum fold activation)
Description: Mass spectrometry based assays were used to identify modulators of SIRT1 activity. […] The peptide was labeled with the fluorophore STMR (excitation 540 nm/emission 580 nm) at the C-terminus. The sequence of the peptide substrate was based on p53 with several modifications. In addition, the methionine residue naturally present in the sequence was replaced with the norleucine because the methionine may be susceptible to oxidation during synthesis and purification. The Trp based assay utilized a peptide having an amino acid residues as follows: Ac-R-H-K-K(Ac)-W-NH2 (SEQ ID NO: 2).
The Trp mass spectrometry assay was conducted as follows. 0.5 μM peptide substrate and 120 μM βNAD^+ were incubated with 10 nM SIRT1 for 25 minutes at 25° C. in a reaction buffer (50 mM HEPES pH 7.5, […], 1 mM DTT, 0.05% BSA). The SIRT1 protein was obtained by cloning the SirT1 gene into a T7-promoter containing vector, which was then expressed in BL21(DE3) bacterial cells and purified as described in further detail below. Test compound was added at varying concentrations to this reaction mixture and the resulting reactions were monitored. After the 25 minute incubation with SIRT1, 10 μL of 10% formic acid was added to stop the reaction. The resulting reactions were sealed and frozen for later mass spec analysis. The relative SIRT1 activity was then determined by measuring the amount of O-acetyl-ADP-ribose (OAADPR) formed (or, alternatively, the amount of deacetylated Trp peptide generated) by the NAD-dependent sirtuin deacetylation reaction in the presence of varying concentrations of the test compound versus control reactions lacking the test compound. The degree to which the test agent activated deacetylation by SIRT1 was expressed as EC1.5 (i.e., the concentration of compound required to increase SIRT1 activity by 50% over the control lacking test compound), and Percent Maximum Activation (i.e., the maximum activity relative to control (100%) obtained for the test compound).
This time point was the same as that used for test compounds and, within the linear range, the endpoint represents a change in velocity.
For the above assay, SIRT1 protein was expressed and purified as follows. The SirT1 gene was cloned into a T7-promoter containing vector and transformed into BL21(DE3). The protein was expressed by induction with 1 mM IPTG as an N-terminal His-tag fusion protein at 18° C. overnight and harvested at 30,000×g. Cells were lysed with lysozyme in lysis buffer (50 mM Tris-HCl, 2 mM Tris[2-carboxyethyl]phosphine (TCEP), 10 μM ZnCl2, 200 mM NaCl) and further treated with sonication for 10 min for complete lysis. The protein was purified over a Ni-NTA column (Amersham) and fractions containing pure protein were pooled, concentrated and run over a sizing column (Sephadex S200 26/60 global). The peak containing soluble protein was collected and run on an Ion-exchange column (MonoQ). Gradient elution (200 mM-500 mM NaCl) yielded pure protein. This protein was concentrated and dialyzed against dialysis buffer (20 mM Tris-HCl, 2 mM TCEP) overnight. The protein was aliquoted and frozen at −80° C. until further use.
“NT” means not tested; “ND” means not determinable.

[1] = Trp peptide substrate, concentration giving 150% activation of SIRT1
[2] = Trp mass spectrometry assay, EC1.5 = concentration of test compound that results in 150% activation of SIRT1

| SMILES | TRP Activity (EC1.5) | Emax | further results |
| --- | --- | --- | --- |
| Cc1cc(-c2ccc3c(n2)N(C(=O)Nc2cnccn2)[C@H]2CCN3C2)cnn1 | B (B (EC1.5 1-25 μM)) | > 150% |  |
| O=C(Nc1cnccn1)N1c2cc(N3CCCC(C(F)(F)F)C3)ccc2N2CCC[C@H]1C2 (some centres unmarked) | A (A (EC1.5<1 μM)) | > 150% |  |
| O=C(O)c1cc(-c2ccc3c(n2)N(C(=O)Nc2cnccn2)[C@H]2CCN3C2)ccn1 [4-[(9S)-8-[(pyrazin-2-yl)carbamoyl]-1,6,8-triazatricyclo[7.2.1.0 {2,7}]dodeca-2(7),3,5-trien-5-yl]pyridine-2-carboxylic acid] | C (C (EC1.5>25 μM)) | < 150% |  |
| O=C(Nc1cccc(-c2cnco2)c1)N1c2nc(-c3cccc(C(F)(F)F)c3)ccc2N2CC[C@H]1C2 [68 (1)] |  |  | Tryp AVG EC1.5 (μM) [1]: A (A (EC1.5<1 μM)) |
| Cc1cnc2c(NC(=O)N3c4nc(-c5cccc(C(F)(F)F)c5)ccc4N4CC[C@H]3C4)cccc2n1 [76 (8)] |  |  | Tryp AVG EC1.5 (μM) [1]: A (A (EC1.5<1 μM)) |
| CCn1ncc2c(NC(=O)N3c4nc(-c5cccc(C(F)(F)F)c5)ccc4N4CC[C@H]3C4)cccc21 [81 (9)] |  |  | Tryp AVG EC1.5 (μM) [1]: A (A (EC1.5<1 μM)) |
| O=C(Nc1cccnc1)N1c2nc(-c3cccc(C(F)(F)F)c3)ccc2N2CCC[C@H]1C2 [314 (5)] |  |  | Tryp AVG EC1.5 (μM) (Trp mass spectrometry assay, concentration of test compound giving 150% activation of SIRT1): A (A (EC1.5<1 μM)) |
| NCc1ccc(NC(=O)N2c3nc(-c4cccc(C(F)(F)F)c4)ccc3N3CCC[C@H]2C3)cc1 [444 (4), (9S)—N-(4-(aminomethyl)phenyl)-2-(3-(trifluoromethyl)phenyl)-8,9-dihydro-6H-5,9-methanopyrido[2,3-b][1,4]diazocine-10(7H)-carboxamide hydrochloride] |  |  | Tryp AVG EC1.5 (μM) [2]: A (A (EC1.5<1 μM)) |
| O=C(CCCCCNC(=O)c1ccc(-c2c3ccc(=O)cc-3oc3cc(O)ccc23)c(C(=O)O)c1)NCc1ccc(NC(=O)N2c3nc(-c4cccc(C(F)(F)F)c4)ccc3N3CCC[C@H]2C3)cc1 [546 (3), 2-(6-hydroxy-3-oxo-3H-xanthen-9-yl)-5-((6-oxo-6-((4-((9S)-2-(3-(trifluoromethyl)phenyl)-7,8,9,10-tetra-hydro-6H-5,9-methanopyrido[2,3-b][1,4]diazocine-10-carboxamido)benzyl)amino)hexyl)carbamoyl)benzoic acid] |  |  | Tryp AVG EC1.5 (μM) [2]: B (B (EC1.5 1-25 μM)) |
| O=C(Nc1ccccn1)N1c2nc(-c3cccc(C(F)(F)F)c3)ccc2N2CC[C@H]1C2 [816 (7)] |  |  | Tryp AVG EC1.5 (μM) (concentration giving 150% activation of SIRT1, Trp peptide substrate): A (A (EC1.5<1 μM)) |
| Cc1cc(-c2ccc3c(n2)N(C(=O)Nc2cnccn2)[C@@H]2CCN3C2)ccn1 [(9R)-5-(2-methylpyridin-4-yl)-N-(pyrazin-2-yl)-1,6,8-triazatricyclo[7.2.1.0 {2,7}]dodeca-2(7),3,5-triene-8-carboxamide] | B (B (EC1.5 1-25 μM)) | > 150% |  |
| Cc1ccc(-c2cc(C)c3c(n2)N(C(=O)Nc2ccccn2)[C@H]2CCN3C2)cn1 [(9S)-3-methyl-5-(6-methylpyridin-3-yl)-N-(pyridin-2-yl)-1,6,8-triazatricyclo[7.2.1.0^{2,7}]dodeca-2,4,6-triene-8-carboxamide] | B (B (EC1.5 1-25 μM)) | > 150% |  |
| Cc1ccc(-c2cc(C)c3c(n2)N(C(=O)Nc2cccnc2)[C@H]2CCN3C2)cn1 [(9S)-3-methyl-5-(6-methylpyridin-3-yl)-N-(pyridin-3-yl)-1,6,8-triazatricyclo[7.2.1.0^{2,7}]dodeca-2,4,6-triene-8-carboxamide] | B (B (EC1.5 1-25 μM)) | > 150% |  |
| O=C(Nc1cnccn1)N1c2nc(-c3cnn(C4CC4)c3)ccc2N2CC[C@H]1C2 [(9S)-5-(1-cyclopropyl-1H-pyrazol-4-yl)-N-(pyrazin-2-yl)-1,6,8-triazatricyclo[7.2.1.0 {2,7}]dodeca-2(7),3,5-triene-8-carboxamide] | A (A (EC1.5<1 μM)) | > 150% |  |
| CCn1cc(-c2ccc3c(n2)N(C(=O)Nc2cnccn2)[C@H]2CCN3C2)cn1 [(9S)-5-(1-ethyl-1H-pyrazol-4-yl)-N-(pyrazin-2-yl)-1,6,8-triazatricyclo[7.2.1.0 {2,7}]dodeca-2(7),3,5-triene-8-carboxamide] | B (B (EC1.5 1-25 μM)) | > 150% |  |
| Cn1ccc(-c2ccc3c(n2)N(C(=O)Nc2cnccn2)[C@H]2CCN3C2)n1 [(9S)-5-(1-methyl-1H-pyrazol-3-yl)-N-(pyrazin-2-yl)-1,6,8-triazatricyclo[7.2.1.0 {2,7}]dodeca-2(7),3,5-triene-8-carboxamide] | B (B (EC1.5 1-25 μM)) | > 150% |  |
| Cn1cc(-c2ccc3c(n2)N(C(=O)Nc2cnccn2)[C@H]2CCN3C2)cn1 [(9S)-5-(1-methyl-1H-pyrazol-4-yl)-N-(pyrazin-2-yl)-1,6,8-triazatricyclo[7.2.1.0 {2,7}]dodeca-2(7),3,5-triene-8-carboxamide] | B (B (EC1.5 1-25 μM)) | > 150% |  |
| Cn1ccc(-c2ccc3c(n2)N(C(=O)Nc2cnccn2)[C@H]2CCN3C2)cc1=O [(9S)-5-(1-methyl-2-oxo-1,2-dihydropyridin-4-yl)-N-(pyrazin-2-yl)-1,6,8-triazatricyclo[7.2.1.0^{2,7}]dodeca-2(7),3,5-triene-8-carboxamide] | B (B (EC1.5 1-25 μM)) | > 150% |  |
| Cn1ccc(-c2ccc3c(n2)N(C(=O)Nc2cccnc2)[C@H]2CCN3C2)cc1=O [(9S)-5-(1-methyl-2-oxo-1,2-dihydropyridin-4-yl)-N-(pyridin-3-yl)-1,6,8-triazatricyclo[7.2.1.0 {2,7}]dodeca-2(7),3,5-triene-8-carboxamide] | B (B (EC1.5 1-25 μM)) | > 150% |  |
| Cn1cc(-c2ccc3c(n2)N(C(=O)Nc2cnccn2)[C@H]2CCN3C2)ccc1=O [(9S)-5-(1-methyl-6-oxo-1,6-dihydropyridin-3-yl)-N-(pyrazin-2-yl)-1,6,8-triazatricyclo[7.2.1.0^2,7]dodeca-2(7),3,5-triene-8-carboxamide] | C (C (EC1.5>25 μM)) | < 150% |  |
| Cn1cc(-c2ccc3c(n2)N(C(=O)Nc2cccnc2)[C@H]2CCN3C2)ccc1=O [(9S)-5-(1-methyl-6-oxo-1,6-dihydropyridin-3-yl)-N-(pyridin-3-yl)-1,6,8-triazatricyclo[7.2.1.0^2,7]dodeca-2(7),3,5-triene-8-carboxamide] | B (B (EC1.5 1-25 μM)) | > 150% |  |
